{"source": "patent US5593964A", "about": "“Method of treating septic shock by preventing actin polymerization” (The George Washington University Medical Center, priority 1994, dated 1997)", "key": {"lethal endotoxin shock": {"tested_on": "lethal endotoxin shock", "assay": "Survival of Swiss Webster mice following lethal endotoxin dose and Tβ4", "type": "in vivo", "description": "Swiss-Webster mice 4-6 weeks of age (20-25g) were housed 6 per cage. The mice were divided into 2 groups: endotoxic mice (endotoxin 60 mg/kg i.p. in acute treatment) and endotoxic mice treated with Tβ4, 5 minutes and 2, 4, 6, 8, 10, 12, 14, 16, 18, 20, 22, 24 hours post administration of the endotoxin. Survival was recorded 2 times a day for 7 days.\nSwiss-Webster mice 4-6 weeks of age (20-25g) were divided to the following 4 groups.\n1. Mice treated with a lethal dose of endotoxin (60 mg/kg).\n2. Mice treated with 60 mg/kg endotoxin followed by an injection of 100 μg Tβ4 (5 minutes post administration of endotoxin).\n3. Mice treated with 60 mg/kg endotoxin followed by 2 injections of 100 μg/Tβ4 (immediately following and 2 hours post administration of endotoxin).\n4. […]"}, "IL-1α": {"tested_on": "IL-1α", "assay": "IL-1α serum levels after lethal endotoxin dose", "type": "in vivo, Swiss-Webster mice", "source_text": "(§1) Using the same methods and materials as in examples 1-3, the effect which Tβ4 has on blood levels of IL-1α, TNF-α, PAG, Txβ2 and 6-keto-PGF1 α, which are pathological mediators of endotoxin induced lethality, was studied."}, "PAF": {"tested_on": "PAF", "assay": "PAF blood levels (plasma, serum) after lethal endotoxin dose", "type": "in vivo, Swiss-Webster mice", "details": "after a lethal dose of endotoxin", "source_text": "as §1"}, "Txβ2": {"tested_on": "Txβ2", "assay": "Txβ2 plasma levels after lethal endotoxin dose", "type": "in vivo, Swiss-Webster mice", "source_text": "as §1"}, "6-keto-PGF1α": {"tested_on": "6-keto-PGF1α", "assay": "6-keto-PGF1α plasma levels after lethal endotoxin dose", "type": "in vivo, Swiss-Webster mice", "details": "after a lethal dose of endotoxin", "source_text": "as §1"}, "TNF-α": {"tested_on": "TNF-α", "assay": "TNF-α serum levels after lethal endotoxin dose", "type": "in vivo, Swiss-Webster mice", "source_text": "as §1"}, "[1]": {"details": "after a lethal dose of endotoxin"}, "[2]": {"details": "endotoxin 60 mg/kg + Tβ4 100 μg administered simultaneously, 1 hr"}, "[3]": {"details": "endotoxin 60 mg/kg + Tβ4 100 μg administered simultaneously, 3 hr"}}, "data": [{"substance": "Thymosin β4 [Tβ4]", "values": [{"measurement": "activity on endotoxin lethality", "setting": "lethal endotoxin shock; 10 μg Tβ4", "result": "sometimes shown positive activity"}, {"measurement": "protection against lethal endotoxin shock", "setting": "lethal endotoxin shock; Example 1, endotoxin 60 mg/kg i.p.", "result": "protected against lethal endotoxin shock"}, {"measurement": "survival rate", "setting": "lethal endotoxin shock; Example 1, endotoxin 60 mg/kg i.p., Tβ4 5 minutes and 2 to 24 hours post endotoxin, survival recorded for 7 days", "result": "≤ 100", "unit": "%"}, {"measurement": "survival rate", "setting": "lethal endotoxin shock; Example 2, endotoxin 60 mg/kg, Tβ4 administered 3 times post endotoxin", "result": 100, "unit": "%"}, {"measurement": "Survival (No. mice alive)", "setting": "lethal endotoxin shock; Table I, endotoxin 60 mg/kg + Tβ4 100 μg 1x (5 min post endotoxin), 24 hrs, 7 mice at 0 hrs", "result": 4}, {"measurement": "Survival (No. mice alive)", "setting": "lethal endotoxin shock; Table I, endotoxin 60 mg/kg + Tβ4 100 μg 2x (immediately and 2 hours post endotoxin), 24 hrs, 7 mice at 0 hrs", "result": 4}, {"measurement": "Survival (No. mice alive)", "setting": "lethal endotoxin shock; Table I, endotoxin 60 mg/kg + Tβ4 100 μg 3x (immediately, 2 and 4 hours post endotoxin), 24 hrs, 7 mice at 0 hrs", "result": 7}, {"measurement": "Survival (No. mice alive)", "setting": "lethal endotoxin shock; Table II, Tβ4 10 μg 3x immediately following, 2 and 4 hrs after endotoxin, 48 hrs, 8 mice at 0 hrs", "result": 6}, {"measurement": "Survival (No. mice alive)", "setting": "lethal endotoxin shock; Table II, Tβ4 10 μg 3x immediately following, 2 and 4 hrs after endotoxin, 72 hrs, 8 mice at 0 hrs", "result": 6}, {"measurement": "Survival (No. mice alive)", "setting": "lethal endotoxin shock; Table II, Tβ4 10 μg 3x immediately following, 2 and 4 hrs after endotoxin, 96 hrs, 8 mice at 0 hrs", "result": 6}, {"measurement": "Survival (No. mice alive)", "setting": "lethal endotoxin shock; Table II, Tβ4 10 μg 3x immediately following, 2 and 4 hrs after endotoxin, 120 hrs, 8 mice at 0 hrs", "result": 6}, {"measurement": "Survival (No. mice alive)", "setting": "lethal endotoxin shock; Table II, Tβ4 100 μg 3x at 2, 4 and 6 hrs after endotoxin, 48 hrs, 8 mice at 0 hrs", "result": 4}, {"measurement": "Survival (No. mice alive)", "setting": "lethal endotoxin shock; Table II, Tβ4 100 μg 3x at 2, 4 and 6 hrs after endotoxin, 72 hrs, 8 mice at 0 hrs", "result": 4}, {"measurement": "Survival (No. mice alive)", "setting": "lethal endotoxin shock; Table II, Tβ4 100 μg 3x at 2, 4 and 6 hrs after endotoxin, 96 hrs, 8 mice at 0 hrs", "result": 4}, {"measurement": "Survival (No. mice alive)", "setting": "lethal endotoxin shock; Table II, Tβ4 100 μg 3x at 2, 4 and 6 hrs after endotoxin, 120 hrs, 8 mice at 0 hrs", "result": 4}, {"measurement": "Survival (No. mice alive)", "setting": "lethal endotoxin shock; Table II, Tβ4 100 μg 3x immediately following, 2 and 4 hrs after endotoxin, 48 hrs, 8 mice at 0 hrs", "result": 8}, {"measurement": "Survival (No. mice alive)", "setting": "lethal endotoxin shock; Table II, Tβ4 100 μg 3x immediately following, 2 and 4 hrs after endotoxin, 72 hrs, 8 mice at 0 hrs", "result": 8}, {"measurement": "Survival (No. mice alive)", "setting": "lethal endotoxin shock; Table II, Tβ4 100 μg 3x immediately following, 2 and 4 hrs after endotoxin, 96 hrs, 8 mice at 0 hrs", "result": 8}, {"measurement": "Survival (No. mice alive)", "setting": "lethal endotoxin shock; Table II, Tβ4 100 μg 3x immediately following, 2 and 4 hrs after endotoxin, 120 hrs, 8 mice at 0 hrs", "result": 8}, {"measurement": "Survival (No. mice alive)", "setting": "lethal endotoxin shock; Table II, endotoxin 60 mg/kg + Tβ4 10 μg 3x immediately following, 2 and 4 hrs after endotoxin, 24 hrs, 8 mice at 0 hrs", "result": 8}, {"measurement": "Survival (No. mice alive)", "setting": "lethal endotoxin shock; Table II, endotoxin 60 mg/kg + Tβ4 100 μg 3x at 2, 4 and 6 hrs after endotoxin, 24 hrs, 8 mice at 0 hrs", "result": 7}, {"measurement": "Survival (No. mice alive)", "setting": "lethal endotoxin shock; Table II, endotoxin 60 mg/kg + Tβ4 100 μg 3x immediately following, 2 and 4 hrs after endotoxin, 24 hrs, 8 mice at 0 hrs", "result": 8}, {"measurement": "Survival (No. mice alive)", "setting": "lethal endotoxin shock; Table III, Tβ4 10 μg 3x i.p., 48 hrs, 10 mice at 0 hrs", "result": 3}, {"measurement": "Survival (No. mice alive)", "setting": "lethal endotoxin shock; Table III, Tβ4 10 μg 3x i.p., 72 hrs, 10 mice at 0 hrs", "result": 3}, {"measurement": "Survival (No. mice alive)", "setting": "lethal endotoxin shock; Table III, Tβ4 10 μg 3x i.p., 96 hrs, 10 mice at 0 hrs", "result": 3}, {"measurement": "Survival (No. mice alive)", "setting": "lethal endotoxin shock; Table III, Tβ4 10 μg 3x i.p., 5 days, 10 mice at 0 hrs", "result": 3}, {"measurement": "Survival (No. mice alive)", "setting": "lethal endotoxin shock; Table III, Tβ4 10 μg 3x i.p., 6 days, 10 mice at 0 hrs", "result": 3}, {"measurement": "Survival (No. mice alive)", "setting": "lethal endotoxin shock; Table III, Tβ4 20 μg 3x i.p., 48 hrs, 10 mice at 0 hrs", "result": 4}, {"measurement": "Survival (No. mice alive)", "setting": "lethal endotoxin shock; Table III, Tβ4 20 μg 3x i.p., 72 hrs, 10 mice at 0 hrs", "result": 4}, {"measurement": "Survival (No. mice alive)", "setting": "lethal endotoxin shock; Table III, Tβ4 20 μg 3x i.p., 96 hrs, 10 mice at 0 hrs", "result": 3}, {"measurement": "Survival (No. mice alive)", "setting": "lethal endotoxin shock; Table III, Tβ4 20 μg 3x i.p., 5 days, 10 mice at 0 hrs", "result": 3}, {"measurement": "Survival (No. mice alive)", "setting": "lethal endotoxin shock; Table III, Tβ4 20 μg 3x i.p., 6 days, 10 mice at 0 hrs", "result": 3}, {"measurement": "Survival (No. mice alive)", "setting": "lethal endotoxin shock; Table III, Tβ4 50 μg 3x i.p., 48 hrs, 10 mice at 0 hrs", "result": 7}, {"measurement": "Survival (No. mice alive)", "setting": "lethal endotoxin shock; Table III, Tβ4 50 μg 3x i.p., 72 hrs, 10 mice at 0 hrs", "result": 7}, {"measurement": "Survival (No. mice alive)", "setting": "lethal endotoxin shock; Table III, Tβ4 50 μg 3x i.p., 96 hrs, 10 mice at 0 hrs", "result": 7}, {"measurement": "Survival (No. mice alive)", "setting": "lethal endotoxin shock; Table III, Tβ4 50 μg 3x i.p., 5 days, 10 mice at 0 hrs", "result": 7}, {"measurement": "Survival (No. mice alive)", "setting": "lethal endotoxin shock; Table III, Tβ4 50 μg 3x i.p., 6 days, 10 mice at 0 hrs", "result": 7}, {"measurement": "Survival (No. mice alive)", "setting": "lethal endotoxin shock; Table III, endotoxin 60 mg/kg + Tβ4 10 μg 3x i.p. immediately following, 2 and 4 hrs after endotoxin, 24 hrs, 10 mice at 0 hrs", "result": 3}, {"measurement": "Survival (No. mice alive)", "setting": "lethal endotoxin shock; Table III, endotoxin 60 mg/kg + Tβ4 20 μg 3x i.p. immediately following, 2 and 4 hrs after endotoxin, 24 hrs, 10 mice at 0 hrs", "result": 5}, {"measurement": "Survival (No. mice alive)", "setting": "lethal endotoxin shock; Table III, endotoxin 60 mg/kg + Tβ4 50 μg 3x i.p. immediately following, 2 and 4 hrs after endotoxin, 24 hrs, 10 mice at 0 hrs", "result": 9}, {"measurement": "survival of mice treated with endotoxin", "setting": "lethal endotoxin shock; Tβ4 20 μg administered three times", "result": "partially increased the survival"}, {"measurement": "survival of mice treated with endotoxin", "setting": "lethal endotoxin shock; Tβ4 50 μg administered three times", "result": "partially increased the survival"}, {"measurement": "effect on endotoxin toxicity", "setting": "lethal endotoxin shock; Tβ4 given immediately following, 2 and 4 hours after endotoxin treatment", "result": "protective effect"}, {"measurement": "IL-1α (serum levels)", "setting": "IL-1α; [1]", "result": "decreased"}, {"measurement": "IL-1α (serum levels)", "setting": "IL-1α; [2]", "result": "147,5 ± 15,1 pg/ml"}, {"measurement": "IL-1α (serum levels)", "setting": "IL-1α; [3]", "result": "207,5 ± 19,3 pg/ml"}, {"measurement": "PAF plasma levels", "setting": "PAF", "result": "decreased"}, {"measurement": "Txβ2 (plasma levels)", "setting": "Txβ2; [1]", "result": "decreased"}, {"measurement": "Txβ2 (plasma levels)", "setting": "Txβ2; endotoxin 60 mg/kg + Tβ4 100 μg administered simultaneously, 0.5 hr", "result": "209 ± 9,5 pg/ml"}, {"measurement": "Txβ2 (plasma levels)", "setting": "Txβ2; [2]", "result": "607 ± 53", "unit": "pg/mL"}, {"measurement": "Txβ2 (plasma levels)", "setting": "Txβ2; endotoxin 60 mg/kg + Tβ4 100 μg administered simultaneously, 2 hr", "result": "196 ± 18", "unit": "pg/mL"}, {"measurement": "Txβ2 (plasma levels)", "setting": "Txβ2; [3]", "result": "112 ± 9", "unit": "pg/mL"}, {"measurement": "6-keto-PGF1 α plasma levels", "setting": "6-keto-PGF1α", "result": "decreased"}, {"measurement": "TNF-α (serum levels)", "setting": "TNF-α; [1]", "result": "decreased"}, {"measurement": "TNF-α (serum levels)", "setting": "TNF-α; endotoxin 60 mg/kg + Tβ4 100 μg administered immediately after endotoxin, 1 hr", "result": 807, "unit": "pg/mL"}, {"measurement": "TNF-α (serum levels)", "setting": "TNF-α; endotoxin 60 mg/kg + Tβ4 100 μg administered immediately after endotoxin, 3 hr", "result": 591, "unit": "pg/mL"}, {"measurement": "TNF-α (serum levels)", "setting": "TNF-α; endotoxin 60 mg/kg + Tβ4 100 μg administered immediately after endotoxin, 5 hr", "result": 496, "unit": "pg/mL"}]}]}
